# Laboratory results: DBAASP
# Tests used:
# Assay in all cases: ≥ marks a high value that may be exact or a test limit, other limits are often not marked, values filed in µg/mL are converted to µM
# [1] = test system: Acinetobacter baumannii MTCC 9829
# [2] = test system: Staphylococcus aureus MTCC 3160
# [3] = test system: Shigella flexneri MTCC 1457
# [4] = test system: Corynebacterium glutamicum MTCC 2679
# [5] = test system: Staphylococcus haemolyticus MTCC 3383
# [6] = test system: Klebsiella aerogenes MTCC 111
# [7] = test system: Proteus vulgaris MTCC 1771
# [8] = test system: Stenotrophomonas maltophilia MTCC 1890
# [9] = test system: Citrobacter freundii MTCC 1658
# [10] = test system: Klebsiella oxytoca MTCC 2275
# [11] = test system: Proteus mirabilis MTCC 3158
# [12] = test system: Vibrio cholerae MTCC 3904
# [13] = test system: Haemophilus influenzae MTCC 621
# [14] = test system: Bordetella bronchiseptica MTCC 6837
# [15] = test system: Alcaligenes faecalis MTCC 1937
# [16] = test system: Pseudomonas aeruginosa MTCC 3542
# [17] = test system: Salmonella enterica subsp. enterica serovar Typhimurium ATCC 14028
# [18] = test system: Enterococcus faecalis MTCC 439
# [19] = test system: Escherichia coli K12 MG1655
# [20] = test system: Klebsiella pneumoniae MTCC 7407
# [21] = test system: Shigella boydii MTCC 11947
# [22] = test system: Pluralibacter gergoviae MTCC 3826
# [23] = test system: Alkalihalobacillus alcalophilus MTCC 860
# [24] = test system: Citrobacter koseri MTCC 1657
# [25] = test system: Salmonella enterica MTCC 9844
# [26] = test system: Bacillus subtilis 168 HT
# [27] = test system: Escherichia coli MG1655
compound,measurement,setting,value
CC[C@H](C)[C@H](NC(=O)[C@H](C)NC(=O)[C@H](CCCCN)NC(=O)[C@@H](N)CCC(=O)O)C(=O)N[C@@H](CC(C)C)C(=O)N[C@@H](CO)C(=O)N[C@@H](C)C(=O)N[C@@H](CC(C)C)C(=O)N[C@@H](CCCCN)C(=O)N[C@@H](CC(C)C)C(=O)N[C@@H](CC(C)C)C(=O)N[C@@H](CCCN=C(N)N)C(=O)N[C@@H](CC(C)C)C(=O)N[C@@H](C)C(=O)N[C@@H](CC(C)C)C(=O)O [EKAILSALKLLRLAL],MIC,[1],≥ 77.5 µM
same,MIC,[2],≥ 77.5 µM
same,MIC,[3],≥ 77.5 µM
same,MIC,[4],19.4 µM
same,MIC,[5],≥ 77.5 µM
same,MIC,[6],≥ 77.5 µM
same,MIC,[7],≥ 77.5 µM
same,MIC,[8],≥ 77.5 µM
same,MIC,[9],≥ 77.5 µM
same,MIC,[10],≥ 77.5 µM
same,MIC,[11],≥ 77.5 µM
same,MIC,[12],≥ 77.5 µM
same,MIC,[13],9.68 µM
same,MIC,[14],≥ 38.7 µM
same,MIC,[15],≥ 77.5 µM
same,MIC,[16],≥ 77.5 µM
same,MIC,[17],> 77.5 µM
same,MIC,[18],≥ 77.5 µM
same,MIC,[19],≥ 77.5 µM
same,MIC,[20],≥ 77.5 µM
same,MIC,[21],≥ 77.5 µM
same,MIC,[22],≥ 77.5 µM
same,MIC,[23],≥ 38.7 µM
same,MIC,[24],≥ 77.5 µM
same,MIC,[25],≥ 77.5 µM
CC[C@H](C)[C@H](NC(=O)[C@H](CCCCN)NC(=O)[C@H](Cc1ccccc1)NC(=O)[C@H](CCCN=C(N)N)NC(=O)[C@H](CCCCN)NC(=O)[C@@H](NC(=O)[C@@H](NC(=O)[C@H](Cc1ccccc1)NC(=O)CN)[C@@H](C)CC)C(C)C)C(=O)N[C@@H](CC(C)C)C(=O)N[C@H](C(=O)O)C(C)C [GFIVKRFKILV],MIC,[26],≥ 97 µM
same,MIC,[27],≥ 97 µM
